The record followed here is patent US20260274892A1, “MACROCYCLIC BROAD SPECTRUM ANTIBIOTICS” (RQx Pharmaceuticals, Inc., priority 2017, published 2026).

Where two headings read alike, the source gives them in different places.

The conditions of data set [1]: cc_pd bond, Pd(dppf)Cl2·CH2Cl2, acetonitrile.
For data set [2], the system named is Escherichia coli ATCC 25922. The data set can be described thus: Minimum inhibitory concentration (MIC), CLSI broth micro-dilution, E. coli. Type of data set: cell-based. The conditions noted are these: Escherichia coli, ATCC25922, 22 h, Table 6, cation adjusted Mueller Hinton Broth + 0.002% Tween-80, 35° C. The method, boiled down: (§1)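 Antibacterial potency is measured as MIC by the CLSI broth dilution method. Bacteria at OD600 0.0005 in Tween-80-supplemented cation-adjusted Mueller Hinton broth face ten twofold compound dilutions for 22 h at 35° C.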
A general note: In broth dilution the organism is exposed to a series of concentrations in liquid medium.

In data set [3] the test system is Methicillin Resistant Staphylococcus aureus strain USA 200. The data set can be described thus: Minimum inhibitory concentration (MIC), CLSI broth micro-dilution, S. aureus. It counts as cell-based. The conditions noted are these: Staphylococcus aureus, MRSA / USA200; Table 6; MRSA USA 200; cation adjusted Mueller Hinton Broth + 0.002% Tween-80; 35° C., 22 hours. The method, boiled down: as §1

In the case of `COC(=O)[C@@H]1Cc2cc(F)c(OCc3ccccc3)c(c2)-c2cc(ccc2OCCNC(=O)OC(C)(C)C)[C@H](N(C)C(=O)OCc2ccccc2)C(=O)N[C@@H](C)C(=O)N1`, in data set [1] (from COC(=O)[C@H](Cc1cc(F)c(OCc2ccccc2)c(B2OC(C)(C)C(C)(C)O2)c1)NC(=O)[C@H](C)NC(=O)[C@H](c1ccc(OCCNC(=O)OC(C)(C)C)c(I)c1)N(C)C(=O)OCc1ccccc1, 20.06 mM, 70.0 °C, 1.5 h), the ring closure, yield of all isomers amounted to 31%. In data set [1] (from COC(=O)[C@H](Cc1cc(O)c(OC)c(B2OC(C)(C)C(C)(C)O2)c1)NC(=O)[C@H](C)NC(=O)[C@H](c1ccc(OC)c(I)c1)N(C)C(=O)OC(C)(C)C, 65.0 °C, 2.0 h), `COC(=O)[C@@H]1Cc2cc(O)c(OC)c(c2)-c2cc(ccc2OC)[C@H](N(C)C(=O)OC(C)(C)C)C(=O)N[C@@H](C)C(=O)N1` had a ring closure, yield of all isomers of 17.1%. Consider `Cc1nc(-c2ccc(OC3CCCCC3)cc2)nc(C)c1C(=O)N[C@@H](CCO)C(=O)N(C)[C@@H]1C(=O)N[C@@H](C)C(=O)N[C@H](C(=O)NCC#N)Cc2ccc(OCCN)c(c2)-c2cc1ccc2OCCN` [Compound 509, (8S,11S,14S)-3,18-bis(2-aminoethoxy)-N-(cyanomethyl)-14-[[(2S)-2-[[2-[4-(cyclohexoxy)phenyl]-4,6-dimethyl-pyrimidine-5-carbonyl]amino]-4-hydroxy-butanoyl]-methyl-amino]-11-methyl-10,13-dioxo-9,12-diazatricyclo[13.3.1.12,6]icosa-1(18),2(20),3,5,15(19),16-hexaene-8-carboxamide], for which the MIC was 0.5 µM in data set [2] and 0.047 µM in data set [3].

The term MIC denotes the lowest concentration that inhibits growth of the organism.
